Data on 25 compounds can be found in ChEMBL document CHEMBL4265887 (Bioorg Med Chem Lett, 2018).

In series [1] the test system is HCT-116. As to the kind of experiment: Cytotoxicity against human HCT116 cells assessed as reduction in cell viability after 48 hrs by MTT assay. It is filed as functional, cell-based. The settings on record: HCT-116, 48 h.
For series [2], the system named is HCT-15. As to the kind of experiment: Cytotoxicity against human HCT15 cells assessed as reduction in cell viability after 48 hrs by MTT assay. It is filed as functional, cell-based. The settings on record: HCT-15, 48 h.
Series [3] can be described thus: Solubility of the compound in phosphate buffer of pH 7.4 after 24 hrs by RP-HPLC analysis. It is filed as physicochemical. To be noted: for solubility at 24 h: phosphate buffer, pH 7.4.
Series [4] is described as follows: Solubility of the compound in phosphate buffer of pH 2 after 24 hrs by RP-HPLC analysis. It is filed as physicochemical.

Values after ≈ are worked out from the molar mass of the structure shown.

As usually defined, the IC50 is the point on the concentration scale where inhibition reaches its midpoint. With `CC(C)c1cc(NS(=O)(=O)c2cccs2)cc2c(C(N)=O)c(NC(=O)C3CC3)sc12`, the IC50 in series [1] stood at 4580 nM.
For `CC(C)c1cc(NS(=O)(=O)c2ccn(C)n2)cc2c(C(N)=O)c(NC(=O)C3CC3)sc12`, the IC50 in series [2] was 1260 nM; in series [1], 760 nM.
Regarding `CNC(=O)Nc1sc2c(C)cc(NS(=O)(=O)c3ccc(C)s3)cc2c1C(N)=O`, in series [1], the concentration for half-maximal inhibition (IC50) stood at 2360 nM.
In general, solubility refers to how much of the substance goes into solution per volume. A high value points to a readily soluble substance. Compound `CNC(=O)Nc1sc2c(C3CC3)cc(NS(=O)(=O)c3cccs3)cc2c1C(N)=O` showed a solubility at 24 h in series [3] of 1.1 µM (≈ 0.496 µg/mL). In addition, the IC50 in series [1] is 1530 nM.
For the compound `CCCS(=O)(=O)Nc1cc(C(C)C)c2sc(NC(=O)C3CC3)c(C(N)=O)c2c1`, in series [1], the IC50 came out at 6200 nM.
For `CNC(=O)Nc1sc2c(C)cc(NS(=O)(=O)c3cccs3)cc2c1C(N)=O`, the solubility at 24 h in series [3] is 12.8 µM (≈ 5.43 µg/mL); in series [4], 5.3 µM (≈ 2.25 µg/mL). Also, the IC50 was determined as 2190 nM in series [2] and 790 nM in series [1].
`CC(C)c1cc(NS(=O)(=O)C2CCCCC2)cc2c(C(N)=O)c(NC(=O)C3CC3)sc12`: the IC50 in series [1] is 9980 nM.
With `CNC(=O)Nc1sc2c(C(C)C)cc(NS(=O)(=O)c3ccco3)cc2c1C(N)=O`, the solubility at 24 h in series [3] is 6.7 µM (≈ 2.92 µg/mL); in series [4], 3.3 µM (≈ 1.44 µg/mL). For the same compound, in series [1], the IC50 worked out at 1300 nM.
`CNC(=O)Nc1sc2c(C(C)C)cc(NS(=O)(=O)c3ccccc3C)cc2c1C(N)=O`: in series [1], the IC50 came out at 1770 nM.
With `CNC(=O)Nc1sc2c(C(C)C)cc(NS(C)(=O)=O)cc2c1C(N)=O`, the 50% inhibitory concentration (IC50) is 4180 nM in series [2] and 1470 nM in series [1].
Consider `CC(C)c1cc(NS(C)(=O)=O)cc2c(C(N)=O)c(NC(=O)C3CC3)sc12`, for which the IC50 in series [1] was 1390 nM.
For the compound `Cc1cc(Nc2cc(N3CCN(C)CC3)nc(Sc3ccc(NC(=O)C4CC4)cc3)n2)[nH]n1` [TOZASERTIB], the solubility in series [3] (buffer, pH 7.4, 24 h) is 120 µM (≈ 55.8 µg/mL). Also, in series [4], the solubility at 24 h turned out to be 120 µM (≈ 55.8 µg/mL).
For `CNC(=O)Nc1sc2c(C(C)C)cc(NS(=O)(=O)c3ccccc3Cl)cc2c1C(N)=O`, in series [1], the IC50 came out at 3410 nM.
On the same count and under the same terms, under `CNC(=O)Nc1sc2c(C(C)C)cc(NS(=O)(=O)c3ccc(C)cc3)cc2c1C(N)=O` stands 3800 nM; under `CNC(=O)Nc1sc2c(C(C)C)cc(NS(=O)(=O)c3ccc(Cl)cc3)cc2c1C(N)=O`, 7000 nM.
`CNC(=O)Nc1sc2c(C(C)C)cc(NS(=O)(=O)c3ccc(C)s3)cc2c1C(N)=O`: the IC50 turned out to be 4100 nM in series [2] and 2330 nM in series [1].
For `CNC(=O)Nc1sc2c(C(C)C)cc(NS(=O)(=O)C(C)C)cc2c1C(N)=O`, in that order: 8660 nM and 2580 nM.
On to `CNC(=O)Nc1sc2c(C)cc(NS(=O)(=O)c3ccco3)cc2c1C(N)=O`, for which the figures for the solubility at 24 h in series [3] and in series [4] were 3.9 µM (≈ 1.59 µg/mL) and 1.1 µM (≈ 0.449 µg/mL), respectively. The IC50 in series [2] was found to be 1510 nM; in series [1], 950 nM.
Turning to `Cc1cccc(S(=O)(=O)Nc2cc(C(C)C)c3sc(NC(=O)C4CC4)c(C(N)=O)c3c2)c1`, the IC50 in series [1] was determined as 9010 nM.
Take `CNC(=O)Nc1sc2c(C3CC3)cc(NS(=O)(=O)c3ccn(C)n3)cc2c1C(N)=O`: the values for the solubility at 24 h in series [3] and in series [4] were 4.8 µM (≈ 2.15 µg/mL) and 3.7 µM (≈ 1.66 µg/mL), respectively. Also, the IC50 in series [1] was 1190 nM.
`CNC(=O)Nc1sc2c(C(C)C)cc(NS(=O)(=O)c3cccc(Cl)c3)cc2c1C(N)=O`: the IC50 was 5660 nM in series [2] and 1020 nM in series [1].
For `CCS(=O)(=O)Nc1cc(C(C)C)c2sc(NC(=O)C3CC3)c(C(N)=O)c2c1`, the IC50 in series [1] amounted to 2360 nM.
Regarding `CNC(=O)Nc1sc2c(C)cc(NS(=O)(=O)c3ccn(C)n3)cc2c1C(N)=O`, the results for the IC50 in series [2] and in series [1] were above 10000 nM and 9780 nM, respectively.
With `CCCCS(=O)(=O)Nc1cc(C(C)C)c2sc(NC(=O)NC)c(C(N)=O)c2c1`, the solubility at 24 h in series [3] came out at 4.6 µM (≈ 1.96 µg/mL); in series [4] it was 4.3 µM (≈ 1.83 µg/mL). For the same compound, the results for the IC50 in series [2] and in series [1] were 4040 nM and 950 nM, respectively.
For `CCCS(=O)(=O)Nc1cc(C(C)C)c2sc(NC(=O)NC)c(C(N)=O)c2c1`, in that order: 3 µM (≈ 1.24 µg/mL), 2.8 µM (≈ 1.16 µg/mL), 4440 nM and 770 nM.
